In US20250170248A1, “SMARCA DEGRADERS AND USES THEREOF” (Kymera Therapeutics, Inc., priority 2021, published 2025):

Assays:
Format in all cases: cell-based
SMARCA2 [1] = target: T1, SMARCA2 (Homo sapiens, UniProt P51531); assay: MSD SMARCA2 degradation in A549 cell line; details: for Dmax: A549, A549 cells; for Dmax / DC50: 24 h; for DC50: read-out: SMARCA2 MSD A549 degradation 24 h: Average external-Abs DC50
In short: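 A549 cells treated 24 h with compound, 3-fold series from 1000 nM. Lysates captured on MSD plates and SMARCA2 quantified with anti-SMARCA2 and SULFO-TAG secondary antibodies (electrochemiluminescence). DC50 and Dmax (% degradation at 24 h) reported as letter bins.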

SMARCA4 = target: T2, SMARCA4 (Homo sapiens, UniProt P51532); assay: SMARCA4 Western blot degradation in MV4-11 cells; details: for Dmax: MV4-11, MV4-11 cells, read-out: SMARCA4 MSD MV411 degradation 24 h: average Dmax %; for Dmax / DC50: 24 h; for DC50: read-out: SMARCA4 MSD MV411 degradation 24 h: Mean external-Abs DC50
T2 construct: SMARCA2/SMARCA4 protein degradation selectivity in MV4-11 cells; endogenous in cells; host or cells: MV4-11
In short: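 24 h compound exposure, MV4-11; RIPA lysates → SDS-PAGE → NC membrane; anti-SMARCA2/BRM, anti-BRG1, β-actin loading control; LI-COR fluorescence read. DC50 and Dmax at 24 h reported as letter bins.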

SMARCA2 [2] = target: T1, SMARCA2; assay: SMARCA2 Western blot degradation in MV4-11 cells; design: SMARCA2/SMARCA4 protein degradation selectivity in MV4-11 cells; endogenous in cells; host or cells: MV4-11; details: for Dmax: MV4-11, MV4-11 cells, read-out: SMARCA2 MSD MV411 degradation 24 h: average Dmax %; for DC50: read-out: SMARCA2 MSD MV411 degradation 24 h: Mean external-Abs DC50; for Selectivity in MV411: SMARCA2/4 selectivity

T2 sequence (P51532 whole entry): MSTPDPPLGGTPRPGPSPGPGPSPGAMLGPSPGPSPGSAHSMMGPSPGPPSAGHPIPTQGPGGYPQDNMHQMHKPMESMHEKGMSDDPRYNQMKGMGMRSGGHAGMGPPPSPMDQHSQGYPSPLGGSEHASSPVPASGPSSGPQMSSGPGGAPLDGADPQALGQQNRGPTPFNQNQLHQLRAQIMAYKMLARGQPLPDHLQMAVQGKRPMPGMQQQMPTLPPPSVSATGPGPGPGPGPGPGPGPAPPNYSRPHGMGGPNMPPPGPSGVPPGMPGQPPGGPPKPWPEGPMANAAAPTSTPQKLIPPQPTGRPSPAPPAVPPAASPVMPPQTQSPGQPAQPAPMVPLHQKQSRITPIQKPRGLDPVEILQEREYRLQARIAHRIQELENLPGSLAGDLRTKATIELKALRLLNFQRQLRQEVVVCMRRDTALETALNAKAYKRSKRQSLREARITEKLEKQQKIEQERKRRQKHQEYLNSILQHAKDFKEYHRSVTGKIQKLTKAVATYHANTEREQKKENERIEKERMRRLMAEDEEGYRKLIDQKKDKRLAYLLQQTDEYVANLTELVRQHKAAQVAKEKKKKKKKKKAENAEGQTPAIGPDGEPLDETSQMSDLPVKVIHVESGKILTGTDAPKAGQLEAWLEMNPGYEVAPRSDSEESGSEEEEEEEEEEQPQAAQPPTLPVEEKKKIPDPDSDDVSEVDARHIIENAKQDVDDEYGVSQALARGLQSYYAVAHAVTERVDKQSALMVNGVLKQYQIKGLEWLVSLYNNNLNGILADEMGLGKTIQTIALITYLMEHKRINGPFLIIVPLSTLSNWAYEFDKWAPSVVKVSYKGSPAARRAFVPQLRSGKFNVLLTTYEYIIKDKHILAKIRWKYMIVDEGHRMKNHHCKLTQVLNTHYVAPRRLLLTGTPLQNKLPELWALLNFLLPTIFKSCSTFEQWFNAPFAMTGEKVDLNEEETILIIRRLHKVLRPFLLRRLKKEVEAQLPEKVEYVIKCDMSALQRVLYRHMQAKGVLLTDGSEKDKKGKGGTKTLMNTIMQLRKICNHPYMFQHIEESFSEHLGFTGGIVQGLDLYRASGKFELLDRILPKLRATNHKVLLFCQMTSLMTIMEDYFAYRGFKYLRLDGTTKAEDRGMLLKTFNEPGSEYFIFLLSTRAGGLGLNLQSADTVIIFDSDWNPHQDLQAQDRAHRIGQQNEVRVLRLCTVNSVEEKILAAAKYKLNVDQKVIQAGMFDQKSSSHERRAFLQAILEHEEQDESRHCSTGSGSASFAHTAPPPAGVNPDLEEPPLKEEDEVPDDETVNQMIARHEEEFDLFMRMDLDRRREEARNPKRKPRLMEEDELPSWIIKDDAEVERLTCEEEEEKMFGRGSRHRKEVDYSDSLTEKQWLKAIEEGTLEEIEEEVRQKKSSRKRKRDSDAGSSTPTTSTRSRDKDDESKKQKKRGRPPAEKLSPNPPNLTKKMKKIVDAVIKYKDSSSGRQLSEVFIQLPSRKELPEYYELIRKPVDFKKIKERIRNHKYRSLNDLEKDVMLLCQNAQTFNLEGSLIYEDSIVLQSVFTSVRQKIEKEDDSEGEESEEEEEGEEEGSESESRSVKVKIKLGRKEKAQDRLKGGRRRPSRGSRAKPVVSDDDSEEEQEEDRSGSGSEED
T1 sequence (P51531 whole entry): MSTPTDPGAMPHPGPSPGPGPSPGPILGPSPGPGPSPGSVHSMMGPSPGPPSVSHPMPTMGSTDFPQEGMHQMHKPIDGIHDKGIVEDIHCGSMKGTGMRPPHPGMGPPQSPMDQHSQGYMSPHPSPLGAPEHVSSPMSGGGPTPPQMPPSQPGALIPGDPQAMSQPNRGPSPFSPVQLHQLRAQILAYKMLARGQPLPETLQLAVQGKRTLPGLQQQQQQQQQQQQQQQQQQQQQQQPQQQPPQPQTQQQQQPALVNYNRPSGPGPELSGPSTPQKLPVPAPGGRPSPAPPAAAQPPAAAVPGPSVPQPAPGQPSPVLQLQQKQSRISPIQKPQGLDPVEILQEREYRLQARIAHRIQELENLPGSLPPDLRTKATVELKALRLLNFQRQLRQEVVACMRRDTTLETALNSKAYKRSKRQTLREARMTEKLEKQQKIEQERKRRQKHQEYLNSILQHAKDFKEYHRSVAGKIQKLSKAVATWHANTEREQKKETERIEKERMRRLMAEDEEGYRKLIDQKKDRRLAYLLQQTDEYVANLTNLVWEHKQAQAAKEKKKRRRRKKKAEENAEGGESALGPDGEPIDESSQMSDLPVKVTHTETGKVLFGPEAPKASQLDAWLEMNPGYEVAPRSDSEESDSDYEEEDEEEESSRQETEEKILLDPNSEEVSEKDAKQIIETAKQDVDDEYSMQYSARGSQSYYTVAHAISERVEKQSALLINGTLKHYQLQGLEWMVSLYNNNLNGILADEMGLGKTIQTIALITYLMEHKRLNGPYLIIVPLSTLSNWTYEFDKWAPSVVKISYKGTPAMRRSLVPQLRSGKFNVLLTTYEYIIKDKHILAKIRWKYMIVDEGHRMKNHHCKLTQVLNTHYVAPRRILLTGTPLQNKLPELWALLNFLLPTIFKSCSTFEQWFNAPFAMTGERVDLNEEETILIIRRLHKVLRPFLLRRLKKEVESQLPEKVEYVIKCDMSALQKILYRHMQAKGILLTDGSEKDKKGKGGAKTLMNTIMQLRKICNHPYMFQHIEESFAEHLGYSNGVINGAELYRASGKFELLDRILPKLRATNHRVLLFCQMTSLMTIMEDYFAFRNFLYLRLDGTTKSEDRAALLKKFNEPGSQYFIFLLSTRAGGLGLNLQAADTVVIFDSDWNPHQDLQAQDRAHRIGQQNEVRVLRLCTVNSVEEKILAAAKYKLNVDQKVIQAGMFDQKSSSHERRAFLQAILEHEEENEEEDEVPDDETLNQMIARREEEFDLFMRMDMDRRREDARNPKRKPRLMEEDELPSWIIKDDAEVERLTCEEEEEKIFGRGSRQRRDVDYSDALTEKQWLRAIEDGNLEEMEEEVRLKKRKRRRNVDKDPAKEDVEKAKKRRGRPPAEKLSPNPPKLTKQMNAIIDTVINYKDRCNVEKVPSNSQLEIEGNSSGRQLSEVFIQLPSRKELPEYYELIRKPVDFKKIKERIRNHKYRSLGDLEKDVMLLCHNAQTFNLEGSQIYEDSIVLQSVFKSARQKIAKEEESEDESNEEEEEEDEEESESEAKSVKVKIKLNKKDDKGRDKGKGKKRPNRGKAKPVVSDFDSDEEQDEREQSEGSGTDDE

Dmax (SMARCA2 [1]) | DC50 (SMARCA2 [1]; A549 cells) | Dmax (SMARCA4) | DC50 (SMARCA4; MV4-11 cells) | Dmax (SMARCA2 [2]; 24 h) | DC50 (SMARCA2 [2]; MV4-11 cells, 24 h) | Selectivity in MV411 (SMARCA2 [2]; MV4-11 cells) | SMARCA2 MSD A549 degradation 24 h: Average Dmax % (SMARCA2 [1]; A549 cells) | SMARCA4 MSD MV411 degradation 24 h: average Dmax % (SMARCA4; MV4-11 cells) | SMARCA2 MSD MV411 degradation 24 h: average Dmax % (SMARCA2 [2]; MV4-11 cells, 24 h) | Structure (SMILES)
> 90% | < 0.01 µM | > 90% | < 0.001 µM | > 90% | < 0.001 µM | C (C (10-100 fold)) |  |  |  | C#Cc1ccc([C@H](CO)NC(=O)[C@@H]2C[C@@H](O)CN2C(=O)[C@@H](NC(=O)N2CC3(CC(N4CCC(c5cnc(N6CCc7[nH]c8nnc(-c9ccccc9O)cc8c7[C@H]6C)nc5)CC4)C3)C2)C(C)(C)C)cc1 [I-168]
> 90% | 0.01 to 0.05 µM | < 50% | > 0.1 µM | 70 to 90% | 0.001 to 0.01 µM | B (B (>100-500 fold)) |  |  |  | C#Cc1ccc([C@H](CCO)NC(=O)[C@@H]2C[C@@H](O)CN2C(=O)[C@@H](NC(=O)N2CC3(CC(N4CCC(c5cnc(N6CCc7[nH]c8nnc(-c9ccccc9O)cc8c7[C@H]6C)nc5)CC4)C3)C2)C(C)(C)C)cc1 [I-169]
> 90% | > 0.1 µM | < 50% | > 0.1 µM | 50 to 70% | 0.01 to 0.1 µM | C (C (10-100 fold)) |  |  |  | C#Cc1ccc(CNC(=O)[C@@H]2C[C@@H](O)CN2C(=O)[C@@H](NC(=O)[C@H]2CCC3(CC2)C[C@H](N2CCC(N4CCC(N5CCN6c7cc(-c8ccccc8O)nnc7NC[C@H]6C5)CC4)CC2)C3)C(C)(C)C)c(F)c1 (stereo partly shown) [I-176]
> 90% | > 0.1 µM | < 50% | > 0.1 µM | 50 to 70% | 0.01 to 0.1 µM | B (B (>100-500 fold)) |  |  |  | C#Cc1ccc(CNC(=O)[C@@H]2C[C@@H](O)CN2C(=O)[C@@H](NC(=O)N2CC3(CC(N4CCC(N5CCC(N6CCc7[nH]c8nnc(-c9ccccc9O)cc8c7[C@H]6C)CC5)CC4)C3)C2)C(C)(C)C)c(F)c1 [I-181]
> 90% | > 0.1 µM | 70 to 90% | > 0.1 µM | 70 to 90% | 0.01 to 0.1 µM | C (C (10-100 fold)) |  |  |  | C#Cc1ccc(CNC(=O)[C@@H]2C[C@@H](O)CN2C(=O)[C@@H](NC(=O)N2CC3(CC(N4CCC([C@H]5CC[C@@H](N6CCc7[nH]c8nnc(-c9ccccc9O)cc8c7[C@H]6C)CC5)CC4)C3)C2)C(C)(C)C)cc1 [I-185]
> 90% | 0.05 to 0.1 µM | > 90% | 0.01 to 0.1 µM | 70 to 90% | 0.01 to 0.1 µM | D (D (<10 fold)) |  |  |  | C#Cc1ccc(CNC(=O)[C@@H]2C[C@@H](O)CN2C(=O)[C@@H](NC(=O)N2CC3(CC(N4CCN([C@H]5CC[C@H](N6CCc7[nH]c8nnc(-c9ccccc9O)cc8c7[C@H]6C)CC5)CC4)C3)C2)C(C)(C)C)cc1 [I-186]

More lines, now with the values behind:

Structure (SMILES) | Dmax (SMARCA2 [1]) | DC50 (SMARCA2 [1]; A549 cells) | Dmax (SMARCA4) | DC50 (SMARCA4; MV4-11 cells) | Dmax (SMARCA2 [2]; 24 h) | DC50 (SMARCA2 [2]; MV4-11 cells, 24 h) | Selectivity in MV411 (SMARCA2 [2]; MV4-11 cells) | SMARCA2 MSD A549 degradation 24 h: Average Dmax % (SMARCA2 [1]; A549 cells) | SMARCA4 MSD MV411 degradation 24 h: average Dmax % (SMARCA4; MV4-11 cells) | SMARCA2 MSD MV411 degradation 24 h: average Dmax % (SMARCA2 [2]; MV4-11 cells, 24 h)
C#Cc1ccc([C@H](C)NC(=O)[C@@H]2C[C@@H](O)CN2C(=O)[C@@H](NC(=O)N2CC3(CC(N4CCC(c5cnc(N6CCc7[nH]c8nnc(-c9ccccc9O)cc8c7[C@H]6C)nc5)CC4)C3)C2)C(C)(C)C)c(OC)c1 [I-167] | > 90% | 0.01 to 0.05 µM | 70 to 90% | > 0.1 µM | 70 to 90% | 0.001 to 0.01 µM | C (C (10-100 fold)) |  |  | 
C#Cc1ccc(CNC(=O)[C@@H]2C[C@@H](O)CN2C(=O)[C@@H](NC(=O)N2CC3(CC(N4C[C@H]5CN(c6cnc(N7CCc8[nH]c9nnc(-c%10ccccc%10O)cc9c8[C@H]7C)nc6)C[C@H]5C4)C3)C2)C(C)(C)C)cc1 [I-171] | > 90% | > 0.1 µM | < 50% | > 0.1 µM | 50 to 70% | 0.01 to 0.1 µM | C (C (10-100 fold)) |  |  | 
C#Cc1ccc(CNC(=O)[C@@H]2C[C@@H](O)CN2C(=O)[C@@H](NC(=O)N2CC3(CC(N4C[C@H]5CN(c6cnc(N7CCc8[nH]c9nnc(-c%10ccccc%10O)cc9c8[C@@H]7C)nc6)C[C@H]5C4)C3)C2)C(C)(C)C)cc1 [I-172] | > 90% | > 0.1 µM | 70 to 90% | > 0.1 µM | 50 to 70% | 0.01 to 0.1 µM | C (C (10-100 fold)) |  |  | 
C#Cc1ccc(CNC(=O)[C@@H]2C[C@@H](O)CN2C(=O)[C@@H](NC(=O)N2CC3(CC(N4CCC5(CCN(c6cnc(N7CCc8[nH]c9nnc(-c%10ccccc%10O)cc9c8C7C)nc6)C5)C4)C3)C2)C(C)(C)C)cc1 (stereo partly shown) [I-173] | > 90% | > 0.1 µM | 50 to 70% | > 0.1 µM | 50 to 70% | 0.01 to 0.1 µM | C (C (10-100 fold)) |  |  | 
C#Cc1ccc(CNC(=O)[C@@H]2C[C@@H](O)CN2C(=O)[C@@H](NC(=O)[C@H]2CCC3(CC2)C[C@H](N2CCC(N4CCC(N5CCN6c7cc(-c8ccccc8O)nnc7NC[C@H]6C5)CC4)CC2)C3)C(C)(C)C)c(OC)c1 (stereo partly shown) [I-178] |  | > 0.1 µM |  | > 0.1 µM |  | 0.01 to 0.1 µM | B (B (>100-500 fold)) | A (A (>90% degradation)) | C (C (50-70% degradation)) | B (B (>70-90% degradation))
C#Cc1ccc(CNC(=O)[C@@H]2C[C@@H](O)CN2C(=O)[C@@H](NC(=O)N2CC3(CC(N4CCC(N5CCC(N6CCc7[nH]c8nnc(-c9ccccc9O)cc8c7[C@@H]6C)CC5)CC4)C3)C2)C(C)(C)C)cc1 [I-180] | > 90% | > 0.1 µM | > 90% | > 0.1 µM | 70 to 90% | 0.01 to 0.1 µM | D (D (<10 fold)) |  |  | 
C#Cc1ccc(CNC(=O)[C@@H]2C[C@@H](O)CN2C(=O)[C@@H](NC(=O)N2CC3(CC(N4CCC(N5CCC(N6CCc7[nH]c8nnc(-c9ccccc9O)cc8c7[C@@H]6C)CC5)CC4)C3)C2)C(C)(C)C)c(F)c1 [I-182] | > 90% | > 0.1 µM | 70 to 90% | > 0.1 µM | 50 to 70% | 0.01 to 0.1 µM | D (D (<10 fold)) |  |  | 
C#Cc1ccc(CNC(=O)[C@@H]2C[C@@H](O)CN2C(=O)[C@@H](NC(=O)N2CC3(CC(N4CCC(N5CCC(N6CCc7[nH]c8nnc(-c9ccccc9O)cc8c7[C@H]6C)CC5)CC4)C3)C2)C(C)(C)C)c(OC)c1 [I-183] | > 90% | > 0.1 µM | 70 to 90% | > 0.1 µM | 70 to 90% | 0.01 to 0.1 µM | C (C (10-100 fold)) |  |  | 
C#Cc1ccc(CNC(=O)[C@@H]2C[C@@H](O)CN2C(=O)[C@@H](NC(=O)N2CC3(CC(N4CCC([C@H]5CC[C@H](N6CCc7[nH]c8nnc(-c9ccccc9O)cc8c7[C@H]6C)CC5)CC4)C3)C2)C(C)(C)C)cc1 [I-184] | > 90% | > 0.1 µM | < 50% | > 0.1 µM | < 50% | > 0.1 µM | C (C (10-100 fold)) |  |  | 
C#Cc1ccc(CNC(=O)[C@@H]2C[C@@H](O)CN2C(=O)[C@@H](NC(=O)N2CC3(CC(N4CCN([C@H]5CC[C@@H](N6CCc7[nH]c8nnc(-c9ccccc9O)cc8c7[C@H]6C)CC5)CC4)C3)C2)C(C)(C)C)cc1 [I-187] | > 90% | 0.05 to 0.1 µM | 70 to 90% | > 0.1 µM | 70 to 90% | 0.001 to 0.01 µM | C (C (10-100 fold)) |  |  | 
